Experimental data reported in patent publication US10206394B2, “Herbicidal compounds” (Syngenta Participations AG, priority 2014, dated 2019).
Like-named read-outs stand apart in the source and are kept apart here.

Key:
Experiment in all cases: Glasshouse assay for herbicidal activity (pre- and post-emergence), percentage phytotoxicity
Type in all cases: in vivo
[1] = test system: Lolium perenne (LOLPE); conditions: Lolium perenne, Rate 250 g/ha, 100%=total damage, 0%=no damage
Method in brief: (§1)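 Damage was rated visually as percent phytotoxicity, 100% meaning total kill, 20 days after pre-emergence application (made one day post-sowing) or 15 days after post-emergence application (made about 12 days post-sowing). Plants were grown under 16 h light, 65% humidity, warm species 24/18° C, cool 20/16° C.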

[2] = test system: Alopecurus myosuroides (ALOMY); conditions: Alopecurus myosuroides, Rate 250 g/ha, 100%=total damage, 0%=no damage
Method in brief: as §1

[3] = test system: Avena fatua (AVEFA); conditions: Avena fatua, Rate 250 g/ha, 100%=total damage, 0%=no damage
Method in brief: as §1

[4] = test system: Echinochloa crus-galli (ECHCG); conditions: Echinochloa crus-galli, Rate 250 g/ha, 100%=total damage, 0%=no damage
Method in brief: as §1

[5] = post-emergence, 360 h, post-emergence, assessed visually 15 DAA, read-out: Post-emergence herbicidal activity (percentage phytotoxicity) LOLPE POST
[6] = pre-emergence, 480 h, pre-emergence, assessed visually 20 DAA, read-out: Pre-emergence herbicidal activity (percentage phytotoxicity) LOLPE PRE
[7] = post-emergence, 360 h, post-emergence, assessed visually 15 DAA, read-out: Post-emergence herbicidal activity (percentage phytotoxicity) ALOMY POST
[8] = pre-emergence, 480 h, pre-emergence, assessed visually 20 DAA, read-out: Pre-emergence herbicidal activity (percentage phytotoxicity) ALOMY PRE
[9] = post-emergence, 360 h, post-emergence, assessed visually 15 DAA, read-out: Post-emergence herbicidal activity (percentage phytotoxicity) AVEFA POST
[10] = pre-emergence, 480 h, pre-emergence, assessed visually 20 DAA, read-out: Pre-emergence herbicidal activity (percentage phytotoxicity) AVEFA PRE
[11] = post-emergence, 360 h, post-emergence, assessed visually 15 DAA, read-out: Post-emergence herbicidal activity (percentage phytotoxicity) ECHCG POST
[12] = pre-emergence, 480 h, pre-emergence, assessed visually 20 DAA, read-out: Pre-emergence herbicidal activity (percentage phytotoxicity) ECHCG PRE
[13] = post-emergence, 360 h, post-emergence, visual assessment 15 DAA, read-out: Post-emergence herbicidal activity (percentage phytotoxicity) LOLPE POST
[14] = pre-emergence, 480 h, pre-emergence, visual assessment 20 DAA, read-out: Pre-emergence herbicidal activity (percentage phytotoxicity) LOLPE PRE
[15] = post-emergence, 360 h, post-emergence, visual assessment 15 DAA, read-out: Post-emergence herbicidal activity (percentage phytotoxicity) ALOMY POST
[16] = pre-emergence, 480 h, pre-emergence, visual assessment 20 DAA, read-out: Pre-emergence herbicidal activity (percentage phytotoxicity) ALOMY PRE
[17] = post-emergence, 360 h, post-emergence, visual assessment 15 DAA, read-out: Post-emergence herbicidal activity (percentage phytotoxicity) AVEFA POST
[18] = pre-emergence, 480 h, pre-emergence, visual assessment 20 DAA, read-out: Pre-emergence herbicidal activity (percentage phytotoxicity) AVEFA PRE
[19] = post-emergence, 360 h, post-emergence, visual assessment 15 DAA, read-out: Post-emergence herbicidal activity (percentage phytotoxicity) ECHCG POST
[20] = pre-emergence, 480 h, pre-emergence, visual assessment 20 DAA, read-out: Pre-emergence herbicidal activity (percentage phytotoxicity) ECHCG PRE

SMILES	pest or weed control at 250 g/ha [1, 5]	pest or weed control at 250 g/ha [1, 6]	pest or weed control at 250 g/ha [2, 7]	pest or weed control at 250 g/ha [2, 8]	pest or weed control at 250 g/ha [3, 9]	pest or weed control at 250 g/ha [3, 10]	pest or weed control at 250 g/ha [4, 11]	pest or weed control at 250 g/ha [4, 12]	pest or weed control at 250 g/ha [1, 13]	pest or weed control at 250 g/ha [1, 14]	pest or weed control at 250 g/ha [2, 15]	pest or weed control at 250 g/ha [2, 16]	pest or weed control at 250 g/ha [3, 17]	pest or weed control at 250 g/ha [3, 18]	pest or weed control at 250 g/ha [4, 19]	pest or weed control at 250 g/ha [4, 20]
Cc1cc(-c2ncc(Cl)cc2Cl)cc(C)c1C1C(=O)CC(CC(=O)NCc2cccc(Cl)c2)C1=O (centres unmarked) [Compound A135]	90%	70%	90%	20%	100%	30%	100%	60%	–	–	–	–	–	–	–	–
Cc1cc(-c2ncc(Cl)cn2)cc(C)c1C1C(=O)CC(CC(=O)N(C)C(C)C)C1=O (centres unmarked) [Compound B351]	–	–	–	–	–	–	–	–	100%	100%	100%	100%	100%	90%	100%	100%
Cc1cc(C)c(C2=C(OC(=O)C(C)(C)C)CC(CC(=O)N(C(=O)C(C)(C)C)C3COC3)C2=O)c(C)c1 (centres unmarked) [Compound P12]	–	–	–	–	–	–	–	–	80%	60%	80%	20%	60%	0%	60%	70%
C#CC(C)(C)NC(=O)CC1CC(=O)C(c2c(C)cc(C)cc2C)C1=O (centres unmarked) [Compound A11]	70%	70%	80%	70%	70%	50%	80%	70%	–	–	–	–	–	–	–	–
